Patent publication US20240051936A1, “ISOINDOLINONE COMPOUNDS” (Monte Rosa Therapeutics, Inc., priority 2021, published 2024)
Read-outs that look alike come from different tables or passages of the source.

Assays:
[1] = target: Full length wild-type cereblon CRBN (Homo sapiens (Human), UniProt Q96SW2); assay: Fluorescence polarization (FP) assay, cereblon binding
Method: Compound activity was monitored in a fluorescence polarization (FP) homogeneous assay using 1-[5-({2-[2-(2-{[2-(2,6-dioxopiperidin-3-yl)-1,3-dioxo-2,3-dihydro-1H-isoindol-4-yl]oxy}acetamido)ethoxy]ethyl}carbamoyl)pentyl]-3,3-dimethyl-2-[(1E,3E)-5-[(2E)-1,3,3-trimethyl-5-sulfo-2,3-dihydro-1H-indol-2-ylidene]penta-1,3-dien-1-yl]-3H-indol-1-ium-5-sulfonate as a fluorescent probe. Unless otherwise stated, all reagents were purchased from Sigma Aldrich. Enzymatic reactions were conducted in Perkin-Elmer Black 384 well ProxiPlate Plus (catalogue no. 6008269) in 10 sL total volume. Full length wild-type cereblon CRBN (80.0 nM, 10 sL) was incubated in assay buffer containing 20 mM HEPES (pH 8.0), […], 0.5 mM TCEP and 0.05% Tween 20 in the presence or absence of compound (300 nL). Inhibitors were stored as 10 mM DMSO stocks in an inert environment (low humidity, dark, low oxygen, room temperature) using the Storage Pod System.
Compounds and DMSO were dispensed using the Echo E5XX (Labcyte Inc. USA) to give concentrations from 300 to 0.937 or 3000 to 9.3 nM in a 12 data point curve. […] Following incubation at room temperature for 30 min, the assay was initiated by dispensing the probe to a final concentration of 5 nM (2.5 nL of a 20 μM stock) using the Echo E5XX. FP was measured after a period of 12 hours using a Pherastar plate reader (BMG Labtech, Germany) exciting at 590 nm and measuring the amount of parallel and perpendicular light at 675 nm. The FP signal was subsequently normalized to the no-compound control (i.e., DMSO). Analysis and IC50 values were derived using Dotmatics (Dotmatics UK) software.

[2] = target: GSPT1 (Homo sapiens (Human), UniProt P15170+Q96SW2); assay: Immunofluorescence assay for GSPT1 degradation in CAL-Si cells; format: cell-based; conditions: CAL-Si cells
Method: The compounds were tested in an immunofluorescence assay for their activity to bind to degrade GSPT1. CAL-Si cells were purchased from DSMZ (cat. Number ACC302), sub-cultured in 90% Dulbecco's MEM (4.5 g/L glucose, Gibco 11965)+10% heat inactivated FBS (BioConcept, 2-01F136I) and incubated at 37° C., 5% CO2. For the assay, imaging microtiterplate Cell Carrier 96 Ultra (Perkin Elmer 6055302) were pre-coated with Fibronectin (Sigma F085, 30 μl at 0.2 μg/ml) in PBS (100 μl, Gibco 14190) for 45 min at room temperature, rinsed with PBS and CAL-Si cells (30K cells/well) were plated and let to adhere overnight. Cells were treated with compounds typically using a serial dilution ranging from 30 μM to 0.1 nM for 6 hours. Compounds were stored at 10 mM DMSO stocks. Vehicle (DMSO), positive (CC-885, 10 μM) and rescue controls (positive control plus 0.2 μM bortezomib) were also included at this stage. Cells were subsequently rinsed with PBS and fixed in 10% Formalin solution (50 μl, Sigma HT5011)) for 20 mins at room temperature. Following three consecutive PBS washes (100 μl), cells were permeabilized in 0.1% Triton X-100 in PBS (Sigma 93443, 50 μl) for 15 mins at room temperature. Following three further PBS washes, 50 μl blocking buffer (1% BSA, Sigma A4503, in PBS) was added for 45 min for signal-to-noise reduction.
Primary antibody (human GSPT1, Sigma HPA052488) was diluted in blocking buffer (dil.1/300, 35 μl/well) and incubated with the cells overnight at 4° C. After three PBS washes, Alexa-fluor 488 coupled secondary antibodies (Invitrogen, A32731, dil.1/1000), Alexa-fluor 647-Phalloïdin (Invitrogen, A22287, dil.1/200) and DAPI (Thermo, #62248, dil.1/1000) were diluted in blocking buffer and incubated with the samples for 2 hours at room temperature. After three final PBS washes, samples were conserved in 100 μl PBS in the dark, until measurement. Image acquisition was performed on the Operetta High-Content Imager (Perkin-Elmer). Fluorescence intensity of Alexa-Fluor 488 (GSPT1), Alexa-Fluor 647 (Actin) and DAPI (Nucleus) were measured. For the determination of GSPT1 DC50 values, a custom algorithm implemented in the PerkinElmer image analysis software Harmony-Acapella® was developed. After user-defined setting of adjustment parameters, the analysis was run identically without human intervention for all image fields. DAPI staining of the nuclei was used to determine the location of cells using standard nuclei detection modules. Segmentation artifacts were removed by threshold-based filters for area, roundness and intensity. The outline of the cells was determined analogously from the sum of the normalized, smoothed DAPI and Actin channel, starting from each nucleus. The Alexa-Fluor 488 (GSPT1) signal intensity in each cell was finally measured, in order to obtain a Mean intensity per cell. GSPT1 degradation (DC50) was calculated after normalization to controls and data import in CDD vault Database, using non-linear regression.

[3] = cereblon binding, bound, read-out: IC50 value
[4] = wild-type CRBN 80.0 nM, probe 5 nM, FP measured after 12 hours, read-out: rFP IC50
[5] = treated 6 hours, read-out: Code, activity for GSPT1 degradation (DC50)
[6] = compounds with code A, read-out: DC50 value code

Sequence of Full length wild-type cereblon CRBN (Q96SW2 whole entry): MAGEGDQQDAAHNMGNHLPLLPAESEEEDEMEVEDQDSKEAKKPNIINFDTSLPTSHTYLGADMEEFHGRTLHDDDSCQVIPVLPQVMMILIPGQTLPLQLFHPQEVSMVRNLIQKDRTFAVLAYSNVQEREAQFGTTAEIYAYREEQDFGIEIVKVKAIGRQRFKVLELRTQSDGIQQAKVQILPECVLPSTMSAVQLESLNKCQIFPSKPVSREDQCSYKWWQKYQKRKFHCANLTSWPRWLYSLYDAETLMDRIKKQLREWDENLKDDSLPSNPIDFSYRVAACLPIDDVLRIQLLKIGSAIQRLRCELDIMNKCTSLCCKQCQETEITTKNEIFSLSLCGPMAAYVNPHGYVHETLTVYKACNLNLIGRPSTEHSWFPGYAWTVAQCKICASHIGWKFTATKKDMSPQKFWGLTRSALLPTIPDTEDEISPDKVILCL
Sequence of GSPT1 (P15170 whole entry): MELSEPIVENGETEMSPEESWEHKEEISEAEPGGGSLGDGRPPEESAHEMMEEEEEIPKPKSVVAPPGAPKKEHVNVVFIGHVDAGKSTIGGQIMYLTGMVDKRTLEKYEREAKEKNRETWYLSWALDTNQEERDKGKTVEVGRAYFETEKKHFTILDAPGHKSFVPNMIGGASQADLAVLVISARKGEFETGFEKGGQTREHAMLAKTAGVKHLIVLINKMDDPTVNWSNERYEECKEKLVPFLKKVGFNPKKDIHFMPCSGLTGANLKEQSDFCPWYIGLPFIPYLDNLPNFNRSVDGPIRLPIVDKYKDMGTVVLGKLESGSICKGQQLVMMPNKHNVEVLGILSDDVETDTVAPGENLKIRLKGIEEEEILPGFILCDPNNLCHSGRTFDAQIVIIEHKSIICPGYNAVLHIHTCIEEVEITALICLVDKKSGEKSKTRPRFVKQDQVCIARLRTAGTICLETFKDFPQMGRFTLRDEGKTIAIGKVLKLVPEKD
Sequence of GSPT1 (Q96SW2 whole entry): as the sequence (Q96SW2 whole entry) above
Sequence of GSPT1 (Q16531 whole entry partner): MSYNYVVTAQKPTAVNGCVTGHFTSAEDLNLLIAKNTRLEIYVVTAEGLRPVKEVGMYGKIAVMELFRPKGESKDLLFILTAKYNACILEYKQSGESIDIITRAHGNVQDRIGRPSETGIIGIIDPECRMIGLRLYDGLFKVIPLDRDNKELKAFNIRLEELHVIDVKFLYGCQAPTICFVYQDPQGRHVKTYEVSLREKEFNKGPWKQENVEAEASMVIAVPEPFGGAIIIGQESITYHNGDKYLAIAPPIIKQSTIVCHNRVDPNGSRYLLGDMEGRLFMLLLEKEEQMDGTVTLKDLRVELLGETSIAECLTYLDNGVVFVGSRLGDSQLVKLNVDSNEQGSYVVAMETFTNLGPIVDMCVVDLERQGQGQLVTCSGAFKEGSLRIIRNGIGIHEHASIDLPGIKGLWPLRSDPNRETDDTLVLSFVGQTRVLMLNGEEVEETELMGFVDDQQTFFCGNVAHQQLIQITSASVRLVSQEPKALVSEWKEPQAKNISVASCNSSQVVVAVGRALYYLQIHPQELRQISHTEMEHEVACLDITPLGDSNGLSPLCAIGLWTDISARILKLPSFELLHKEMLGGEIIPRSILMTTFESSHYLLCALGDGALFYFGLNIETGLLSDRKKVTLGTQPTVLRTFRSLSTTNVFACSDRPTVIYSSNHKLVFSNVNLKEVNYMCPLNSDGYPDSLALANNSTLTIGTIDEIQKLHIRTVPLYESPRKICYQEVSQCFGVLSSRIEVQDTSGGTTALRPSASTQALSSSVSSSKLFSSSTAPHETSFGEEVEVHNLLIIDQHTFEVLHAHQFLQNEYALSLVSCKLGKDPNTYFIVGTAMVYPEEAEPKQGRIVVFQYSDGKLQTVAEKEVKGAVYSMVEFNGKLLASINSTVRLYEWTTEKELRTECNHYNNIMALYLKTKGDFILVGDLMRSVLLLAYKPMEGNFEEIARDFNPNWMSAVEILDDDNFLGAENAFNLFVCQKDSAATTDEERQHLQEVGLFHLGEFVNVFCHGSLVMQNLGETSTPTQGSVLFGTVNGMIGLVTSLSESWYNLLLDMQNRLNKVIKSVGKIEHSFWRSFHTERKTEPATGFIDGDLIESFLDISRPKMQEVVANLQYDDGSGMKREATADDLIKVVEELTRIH

SMILES	IC50 [1, 3]	IC50 [1, 4]	DC50 [2, 5]	DC50 [2, 6]
COc1cc(COC(=O)Nc2ccc(F)c(OC(F)F)c2)cc2c1CN(C1CCC(=O)NC1=O)C2=O (stereo not drawn) [Compound 46, (2-(2,6-dioxopiperidin-3-yl)-7-methoxy-3-oxoisoindolin-5-yl)methyl(3-(difluoromethoxy)-4-fluorophenyl)carbamate]	< 600 nM	600 to 1200 nM	30 to 300 nM	
Cc1ccc(NC(=O)OCc2cc(F)c3c(c2)C(=O)N(C2CCC(=O)NC2=O)C3)cc1OC(F)F (stereo not drawn) [Compound 35, (2-(2,6-dioxopiperidin-3-yl)-7-fluoro-3-oxoisoindolin-5-yl) methyl (3-(difluoromethoxy)-4-methylphenyl)carbamate]		> 1900 nM	< 30 nM	< 30 nM
COc1cc(COC(=O)Nc2ccc(C3CCC3)cc2)cc2c1CN(C1CCC(=O)NC1=O)C2=O (stereo not drawn) [Compound 57, (2-(2,6-dioxopiperidin-3-yl)-7-methoxy-3-oxoisoindolin-5-yl)methyl(4-cyclobutylphenyl) carbamate]	< 1200 nM			
Cc1cc(F)c(NC(=O)OCc2cc(F)c3c(c2)C(=O)N(C2CCC(=O)NC2=O)C3)cc1Cl (stereo not drawn) [Compound 64, (2-(2,6-dioxopiperidin-3-yl)-7-fluoro-3-oxoisoindolin-5-yl)methyl(5-chloro-2-fluoro-4-methylphenyl)carbamate]			30 to 300 nM	
COc1cc(COC(=O)Nc2ccc(F)c(Cl)c2)cc2c1CN(C1CCC(=O)NC1=O)C2=O (stereo not drawn) [Compound 51, (2-(2,6-dioxopiperidin-3-yl)-7-methoxy-3-oxoisoindolin-5-yl)methyl(3-chloro-4-fluorophenyl)carbamate]	< 600 nM	600 to 1200 nM	30 to 300 nM	
Cc1cc(NC(=O)OCc2cc(F)c3c(c2)C(=O)N(C2CCC(=O)NC2=O)C3)cnc1-c1ccccc1 (stereo not drawn) [Compound 20, (2-(2,6-dioxopiperidin-3-yl)-7-fluoro-3-oxoisoindolin-5-yl)methyl(5-methyl-6-phenylpyridin-3-yl)carbamate]	< 600 nM			
COc1cc(COC(=O)Nc2ccc(-c3ccccc3F)nc2)cc2c1CN(C1CCC(=O)NC1=O)C2=O (stereo not drawn) [Compound 36, (2-(2,6-dioxopiperidin-3-yl)-7-methoxy-3-oxoisoindolin-5-yl)methyl (6-(2-fluorophenyl)pyridin-3-yl)carbamate]	< 600 nM	1200 to 1900 nM	< 30 nM	< 30 nM
COc1cc(COC(=O)Nc2cccc(OC(F)F)c2)cc2c1CN(C1CCC(=O)NC1=O)C2=O (stereo not drawn) [Compound 53, (2-(2,6-dioxopiperidin-3-yl)-7-methoxy-3-oxoisoindolin-5-yl)methyl (3-(difluoromethoxy)phenyl)carbamate]	< 600 nM	≤ 600 nM	< 30 nM	< 30 nM
Cc1ccccc1-c1ccc(NC(=O)OCc2cc(F)c3c(c2)C(=O)N(C2CCC(=O)NC2=O)C3)cn1 (stereo not drawn) [Compound 19, (2-(2,6-dioxopiperidin-3-yl)-7-fluoro-3-oxoisoindolin-5-yl)methyl (6-(o-tolyl)pyridin-3-yl)carbamate]	< 600 nM	≤ 600 nM	< 30 nM	< 30 nM
C[C@@H]1CCCN1c1ccc(NC(=O)OCc2cc(F)c3c(c2)C(=O)N(C2CCC(=O)NC2=O)C3)cn1 (stereo partly drawn) [Compound 23, (2-(2,6-dioxopiperidin-3-yl)-7-fluoro-3-oxoisoindolin-5-yl)methyl (6-((R)-2-methylpyrrolidin-1-yl)pyridin-3-yl)carbamate]	< 600 nM			
Cc1cc(F)cc(NC(=O)OCc2cc(F)c3c(c2)C(=O)N(C2CCC(=O)NC2=O)C3)c1 (stereo not drawn) [Compound 63, (2-(2,6-dioxopiperidin-3-yl)-7-fluoro-3-oxoisoindolin-5-yl)methyl (3-fluoro-5-methylphenyl)carbamate]			30 to 300 nM	
COc1cc(COC(=O)Nc2cc(Cl)c(C)cc2F)cc2c1CN(C1CCC(=O)NC1=O)C2=O (stereo not drawn) [Compound 68, (2-(2,6-dioxopiperidin-3-yl)-7-methoxy-3-oxoisoindolin-5-yl)methyl (5-chloro-2-fluoro-4-methylphenyl)carbamate]			> 300 nM	
COc1cc(COC(=O)Nc2ccc(N3CCCC3C)nc2)cc2c1CN(C1CCC(=O)NC1=O)C2=O (stereo in doubt) [Compound 62, (2-(2,6-dioxopiperidin-3-yl)-7-methoxy-3-oxoisoindolin-5-yl)methyl (6-((R)-2-methylpyrrolidin-1-yl)pyridin-3-yl)carbamate]	< 600 nM	≤ 600 nM		
Cc1cc(Cl)cc(NC(=O)OCc2cc(F)c3c(c2)C(=O)N(C2CCC(=O)NC2=O)C3)c1 (stereo not drawn) [Compound 27, (2-(2,6-dioxopiperidin-3-yl)-7-fluoro-3-oxoisoindolin-5-yl)methyl(3-chloro-5-methylphenyl)carbamate]	< 600 nM			
CC1(C)COc2cc(NC(=O)OCc3cc(F)c4c(c3)C(=O)N(C3CCC(=O)NC3=O)C4)ccc21 (stereo not drawn) [Compound 17, (2-(2,6-dioxopiperidin-3-yl)-7-fluoro-3-oxoisoindolin-5-yl)methyl(3,3-dimethyl-2,3-dihydrobenzofuran-6-yl) carbamate]	< 1200 nM			
Cc1ccc(NC(=O)OCc2ccc3c(c2C)C(=O)N(C2CCC(=O)NC2=O)C3)cc1Cl (stereo not drawn) [Compound 73, (2-(2,6-dioxopiperidin-3-yl)-4-methyl-3-oxoisoindolin-5-yl)methyl(3-chloro-4-methylphenyl)carbamate]		≤ 600 nM		
CC(C)(C)c1ccc(NC(=O)OCc2cc(F)c3c(c2)C(=O)N(C2CCC(=O)NC2=O)C3)cn1 (stereo not drawn) [Compound 9, (2-(2,6-dioxopiperidin-3-yl)-7-fluoro-3-oxoisoindolin-5-yl)methyl(6-(tert-butyl)pyridin-3-yl)carbamate]	< 600 nM			
COc1cc(COC(=O)Nc2cc(F)cc(OC(F)F)c2)cc2c1CN(C1CCC(=O)NC1=O)C2=O (stereo not drawn) [Compound 47, (2-(2,6-dioxopiperidin-3-yl)-7-methoxy-3-oxoisoindolin-5-yl)methyl(3-(difluoromethoxy)-5-fluorophenyl) carbamate]	< 600 nM			
COc1cc(COC(=O)Nc2ccc(F)c(OC(F)(F)F)c2)cc2c1CN(C1CCC(=O)NC1=O)C2=O (stereo not drawn) [Compound 39, (2-(2,6-dioxopiperidin-3-yl)-7-methoxy-3-oxoisoindolin-5-yl)methyl(4-fluoro-3-(trifluoromethoxy)phenyl) carbamate]	< 600 nM			
O=C1CCC(N2Cc3c(F)cc(COC(=O)Nc4cc(OC(F)(F)F)ccc4F)cc3C2=O)C(=O)N1 (stereo not drawn) [Compound 65, (2-(2,6-dioxopiperidin-3-yl)-7-fluoro-3-oxoisoindolin-5-yl)methyl (2-fluoro-5-(trifluoromethoxy)phenyl) carbamate]			30 to 300 nM	
